Experimental data reported in the supplement of paper PMC10307832.

What was measured:
Assay in all cases: relative viability (nuclei count vs DMSO), 5 days (fraction); higher = more cells survive
[1] = test system: NCI-H1666
How it was run: (§1)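 Lung cancer cell lines, seeded in 1536-well plates, were treated the following day by pin tool with a single drug or with five library-drug doses (not always all listed) in √10 steps on top of a fixed anchor-drug dose. Cells were fixed and nuclei stained in one step after 5 days, and nuclei were counted. Relative viability is the nuclei count for treated wells divided by that for vehicle wells, reported as medians of duplicate plates.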

[2] = test system: CAL-12T
How it was run: as §1

[3] = test system: NCI-H1395
How it was run: as §1

[4] = test system: NCI-H520
How it was run: as §1

[5] = test system: LCLC-103H
How it was run: as §1

[6] = test system: NCI-H647
How it was run: as §1

[7] = test system: NCI-H2170
How it was run: as §1

[8] = test system: NCI-H1993
How it was run: as §1

[9] = test system: NCI-H1651
How it was run: as §1

[10] = test system: NCI-H2347
How it was run: as §1

[11] = test system: NCI-H2085
How it was run: as §1

[12] = test system: COR-L23
How it was run: as §1

[13] = test system: ABC-1
How it was run: as §1

[14] = test system: NCI-H23
How it was run: as §1

[15] = test system: NCI-H2342
How it was run: as §1

[16] = test system: ChaGo-K-1
How it was run: as §1

[17] = test system: NCI-H322M
How it was run: as §1

[18] = test system: NCI-H1355
How it was run: as §1

[19] = test system: 201T
How it was run: as §1

[20] = test system: NCI-H661
How it was run: as §1

[21] = test system: HOP-62
How it was run: as §1

[22] = test system: NCI-H2228
How it was run: as §1

[23] = test system: LC-2-ad
How it was run: as §1

[24] = test system: NCI-H838
How it was run: as §1

CCCCCCCCCCCC1=C(O)C(=O)C=C(O)C1=O [Embelin] + COc1cc2c(Oc3ccc(NC(=O)C4(C(=O)Nc5ccc(F)cc5)CC4)cc3F)ccnc2cc1OCCCN1CCOCC1 [Foretinib] (partner 0.25 µM) gave a relative viability ([1]; first compound 0.08 µM) of 0.943, a relative viability ([1]; first compound 0.8 µM) of 1.07 and a relative viability ([1]; first compound 2.53 µM) of 0.978. For the same compound, the relative viability ([1]; first compound 8 µM) was 0.941, the relative viability ([2]; first compound 0.08 µM) was 1.1 and the relative viability ([2]; first compound 0.8 µM) was 1.22. For the same compound, the relative viability ([2]; first compound 2.53 µM) was 1.26, the relative viability ([2]; first compound 8 µM) was 1.16 and the relative viability ([3]; first compound 0.08 µM) was 0.904. The relative viability ([3]; first compound 0.8 µM) was 1.13, the relative viability ([3]; first compound 2.53 µM) was 1.08 and the relative viability ([3]; first compound 8 µM) was 0.953. It also gave a relative viability ([4]; first compound 0.08 µM) of 0.891, a relative viability ([4]; first compound 0.8 µM) of 0.891 and a relative viability ([4]; first compound 2.53 µM) of 0.878. For the same compound, the relative viability ([4]; first compound 8 µM) was 0.807, the relative viability ([5]; first compound 0.08 µM) was 0.736 and the relative viability ([5]; first compound 0.8 µM) was 0.842. The relative viability ([5]; first compound 2.53 µM) was 0.912, the relative viability ([5]; first compound 8 µM) was 0.755 and the relative viability ([6]; first compound 0.08 µM) was 1.37. For the same compound, the relative viability ([6]; first compound 0.8 µM) was 1.38, the relative viability ([6]; first compound 2.53 µM) was 1.28 and the relative viability ([6]; first compound 8 µM) was 1.08. The relative viability ([7]; first compound 0.08 µM) was 0.539, the relative viability ([7]; first compound 0.8 µM) was 1.08 and the relative viability ([7]; first compound 2.53 µM) was 1.06. The relative viability ([7]; first compound 8 µM) was 1, the relative viability ([8]; first compound 0.08 µM) was 0.803 and the relative viability ([8]; first compound 0.8 µM) was 0.699. For the same compound, the relative viability ([8]; first compound 2.53 µM) was 0.876, the relative viability ([8]; first compound 8 µM) was 0.834 and the relative viability ([9]; first compound 0.08 µM) was 0.848. The relative viability ([9]; first compound 0.8 µM) was 0.865, the relative viability ([9]; first compound 2.53 µM) was 0.924 and the relative viability ([9]; first compound 8 µM) was 0.769. The relative viability ([10]; first compound 0.08 µM) was 0.981, the relative viability ([10]; first compound 0.8 µM) was 0.837 and the relative viability ([10]; first compound 2.53 µM) was 1.21. The relative viability ([10]; first compound 8 µM) was 0.942, the relative viability ([11]; first compound 0.08 µM) was 1.04 and the relative viability ([11]; first compound 0.8 µM) was 0.986. It also gave a relative viability ([11]; first compound 2.53 µM) of 1.05, a relative viability ([11]; first compound 8 µM) of 0.843 and a relative viability ([12]; first compound 0.08 µM) of 1. The relative viability ([12]; first compound 0.8 µM) was 1.13, the relative viability ([12]; first compound 2.53 µM) was 1.01 and the relative viability ([12]; first compound 8 µM) was 1.14. It also gave a relative viability ([13]; first compound 0.08 µM) of 1.17, a relative viability ([13]; first compound 0.8 µM) of 1.12 and a relative viability ([13]; first compound 2.53 µM) of 1.05. The relative viability ([13]; first compound 8 µM) was 1.08, the relative viability ([14]; first compound 0.08 µM) was 1.02 and the relative viability ([14]; first compound 0.8 µM) was 1.09. The relative viability ([14]; first compound 2.53 µM) was 1.07, the relative viability ([14]; first compound 8 µM) was 1.16 and the relative viability ([15]; first compound 0.08 µM) was 1.12. The relative viability ([15]; first compound 0.8 µM) was 1.12, the relative viability ([15]; first compound 2.53 µM) was 1.18 and the relative viability ([15]; first compound 8 µM) was 1.07. The relative viability ([16]; first compound 0.08 µM) was 0.951, the relative viability ([16]; first compound 0.8 µM) was 1.01 and the relative viability ([16]; first compound 2.53 µM) was 1. For the same compound, the relative viability ([16]; first compound 8 µM) was 1.01, the relative viability ([17]; first compound 0.08 µM) was 0.938 and the relative viability ([17]; first compound 0.8 µM) was 1.22. For the same compound, the relative viability ([17]; first compound 2.53 µM) was 1.03, the relative viability ([17]; first compound 8 µM) was 0.961 and the relative viability ([18]; first compound 0.08 µM) was 0.969. It also gave a relative viability ([18]; first compound 0.8 µM) of 1.07, a relative viability ([18]; first compound 2.53 µM) of 1.21 and a relative viability ([18]; first compound 8 µM) of 1.03. The relative viability ([19]; first compound 0.08 µM) was 1.14, the relative viability ([19]; first compound 0.8 µM) was 1.15 and the relative viability ([19]; first compound 2.53 µM) was 1.18. For the same compound, the relative viability ([19]; first compound 8 µM) was 0.961, the relative viability ([20]; first compound 0.08 µM) was 1.03 and the relative viability ([20]; first compound 0.8 µM) was 1.08. The relative viability ([20]; first compound 2.53 µM) was 0.994, the relative viability ([20]; first compound 8 µM) was 0.976 and the relative viability ([21]; first compound 0.08 µM) was 1.27. It also gave a relative viability ([21]; first compound 0.8 µM) of 1.18, a relative viability ([21]; first compound 2.53 µM) of 1.23 and a relative viability ([21]; first compound 8 µM) of 1.25. For the same compound, the relative viability ([22]; first compound 0.08 µM) was 1.08, the relative viability ([22]; first compound 0.8 µM) was 0.868 and the relative viability ([22]; first compound 2.53 µM) was 1.32. For the same compound, the relative viability ([22]; first compound 8 µM) was 0.996, the relative viability ([23]; first compound 0.08 µM) was 0.916 and the relative viability ([23]; first compound 0.8 µM) was 0.987. The relative viability ([23]; first compound 2.53 µM) was 1.13, the relative viability ([23]; first compound 8 µM) was 0.861 and the relative viability ([24]; first compound 0.08 µM) was 1.08. For the same compound, the relative viability ([24]; first compound 0.8 µM) was 1.11, the relative viability ([24]; first compound 2.53 µM) was 1.06 and the relative viability ([24]; first compound 8 µM) was 1.09.
